The results in this text go back to PubChem BioAssay (NCI).

Common to all, as to assay: inhibition of tumour cell growth, NCI panel, 48 h
In test [1] the test system is BT-549 breast.
The subject of test [2] is CCRF-CEM leukemia.
Test [3] has as its system EKVX NSCLC.
The test system of test [4] is HCT-15 colon.
Test [5] relates to HOP-62 NSCLC.
The subject of test [6] is HS 578T breast.
Test [7] relates to NCI-H460 lung.
Test [8] concerns SK-MEL-28 melanoma.
The subject of test [9] is SK-MEL-5 melanoma.
The subject of test [10] is MOLT-4 leukemia.

Values joined by “and” are separate entries in the source; they are usually repeats but may differ in a detail not shown here. Equal values may be shown once.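 Results reflect a 48-hour exposure of cells in 96-well plates to compound at five concentrations. Abbreviation: GI50, concentration required for 50% inhibition of growth. The concentration for full growth arrest is given as TGI.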 Where a SMILES comes first, the peptide text is derived from it. The star is where a group is joined. Boc = CC(C)(C)OC(=O)*; nBu = CCCC*

Turning to `CN(CCc1ccccn1)c1ccc2c(c1)C(=O)c1ccccc1-2`, the TGI in [1], in test [2], in [3], in [4], in test [5] and in test [6] was above 100 µM in each case. Besides, the figures for the TGI in [7], in [8] and in test [9] were above 100 µM, above 100 µM and 98.3 µM, respectively.

Regarding `CCOc1nc2c(N3CCCC3)nc(N3CCNCC3)nc2nc1NCc1ccccc1`, the TGI in [1] was 3.51 µM; in test [2], 3.49 µM; in test [3] it was 4.33 µM; in [4] it was 3.45 µM; in test [5], 2.33 µM; in test [6], 3.53 µM. The TGI in [10] was 2.8 µM; in test [7], 2.91 µM; in test [8], 3.37 µM; in test [9] it was 2.71 µM.

As for `COC(=O)c1c(O)ccc2c1c1cc3ccccc3c(O)c1n2CCc1ccc(OC)c(OC)c1`, the TGI in test [1], in test [2], in test [3], in test [4], in [5] and in test [6] was above 100 µM in each case. For the same compound, the TGI in test [10] is above 100 µM; in [7], above 100 µM; in [8], 91.1 µM; in test [9], above 100 µM.

In the case of `O=P(NCCCO)(OCc1ccccc1)N(CCCl)CCCl` (centres undefined), the TGI in test [2], in test [4], in [10], in test [7], in [8] and in test [9] was above 100 µM throughout.

`O=[N+]([O-])c1ccc(N=Nc2c(O)[nH]c3ccccc23)c([N+](=O)[O-])c1`: the TGI in [1] was 34.1 µM; in test [2], above 100 µM; in test [3], 20.7 µM; in test [4], 57.9 µM; in [5], 24.2 µM; in test [6] it was above 100 µM. Also, the TGI in [10] is above 100 µM; in test [7] it was 37.4 µM; in [8], above 100 µM; in test [9], above 100 µM.

For `CC(C)CC(N)C(=O)NC(C(=O)NC(CCCNC(=N)N)C(=O)NC(CS)C(=O)NC1CSCC(C(=O)NC(Cc2ccccc2)C(=O)NC(C(=O)NC(CCCNC(=N)N)C(=O)O)C(C)C)NC(=O)C2CCCN2C(=O)C(CCCCN)NC(=O)C2CCCN2C(=O)C2CCCN2C(=O)C(Cc2ccc(O)cc2)NC(=O)C(CO)NC(=O)C(CCCCN)NC(=O)C(C(C)O)NC(=O)C(Cc2c[nH]c3ccccc23)NC1=O)C(C)C` (centres undefined), the TGI in test [1], in [2], in test [3], in test [4], in test [5] and in test [6] was above 25 µM each time. The TGI in [10], in test [8] and in [9] was above 25 µM in each case.

Take `Cc1c(-c2ccccc2)[nH]c2cn[nH]c(=O)c12`: the TGI in test [1], in [2], in [3], in test [4], in test [5] and in [6] was above 100 µM throughout. Further, the TGI in test [10], in test [7], in test [8] and in test [9] was above 100 µM in each case.

On to `O=C(Nc1ccccc1)Oc1ccc(C(=S)Nc2ccc(Br)cc2)cc1`, for which the TGI was 36.6 µM in test [1]; 28.5 µM in [2]; 31.1 µM in [3]; 34.5 µM in test [4]; 82.1 µM in test [5]; above 100 µM in test [6]. Besides, the TGI was determined as 66.2 µM in test [10], 59.3 µM in test [7], 46.4 µM in test [8] and 31.1 µM in [9].

For the compound `COc1ccc(N2C(=O)C(=O)C3(CCCCC3)C2=O)c2ccccc12`, the TGI in [2], in test [3], in test [4], in test [5], in test [6] and in test [10] was above 10 µM each time. The TGI in [7], in test [8] and in test [9] was above 10 µM each time.

In the case of `C#C[C@]1(O)CC[C@H]2[C@@H]3CCc4cc(O)ccc4[C@H]3CC[C@@]21C`, the TGI in test [2] is above 100 µM; in [3] it was above 100 µM; in [4] it was above 100 µM; in test [10], above 100 µM; in [7], 82.5 µM; in [8] it was above 100 µM. In [9], this compound came in with a TGI of 52.2 µM.

Consider `COc1ccccc1-c1c(C#N)c(N)[nH]c(=S)c1C#N`, for which the TGI in test [1], in [3], in [4], in test [5], in test [6] and in [10] was above 100 µM each time. Also, the TGI in test [7], in test [8] and in [9] was above 100 µM each time.

As to `CC(=O)c1ccc(Nc2c3ccccc3nc3occc23)cc1`, the TGI is above 100 µM in test [1]; 4.46 µM in test [2]; above 45.9 µM in test [3]; above 42.8 µM in [4]; above 100 µM in test [5]; 32.2 µM in test [10]. Besides, the values for the TGI in test [7], in [8] and in [9] were 0.453 µM, 50 µM and 3.91 µM, respectively.

For `COc1cc(C2S/C(=C/c3ccccc3)C(=O)N2c2cccc(NC(C)=O)c2)cc(OC)c1OC` (centres undefined), the TGI is above 100 µM in [1]; above 100 µM in test [2]; 53.2 µM in [3]; above 100 µM in [4]; above 100 µM in [5]; 60.7 µM in [6]. Besides, the TGI in test [10], in test [8] and in [9] was above 100 µM in each case.

Consider `COc1ccc(C2C3CCc4ccccc4C3=NN2S(=O)(=O)c2cccc(C(=O)O)c2OC)cc1` (centres undefined), for which the TGI is above 100 µM in test [1]; 81.7 µM in [2]; above 100 µM in [3]; 0.778 µM in test [4]; above 100 µM in [5]; above 100 µM in test [10]. The TGI in [7] and in test [9] was above 100 µM throughout.

With `Nc1nc(SCC(=O)c2ccc(Br)cc2)c2[nH]cnc2n1`, the TGI in test [1] is above 100 µM; in test [2], 47.8 µM; in test [3], above 100 µM; in test [4], above 100 µM; in test [5] it was above 100 µM; in test [6], 81.9 µM. Also, the TGI in test [7] is above 100 µM; in test [8], above 100 µM; in [9], 60.3 µM.

`COc1ccc(CCn2cncn2)cc1`: the TGI in test [2], in test [3], in test [4], in [5], in [10] and in test [7] was above 100 µM each time. Moreover, the TGI in test [8] and in [9] was above 100 µM each time.

As to `Cc1ccc(-c2cn3c(nc4ccccc43)c(/C=C/c3ccco3)n2)cc1`, the TGI was above 100 µM in test [1]; above 100 µM in [4]; above 100 µM in [5]; 84.2 µM in test [6]; above 100 µM in [7]; above 100 µM in test [8]. The compound also registered a TGI in test [9] above 100 µM.

Consider `O=C(Cc1nc2ccccc2[nH]c1=O)c1c[nH]c2ccccc12`, for which the TGI in test [1] is 29.6 µM; in test [2], above 100 µM; in test [3] it was above 100 µM; in [4] it was above 100 µM; in [5], 68.2 µM; in test [6] it was above 100 µM. The TGI in test [10] is above 100 µM; in test [7], 32.4 µM; in test [9], 26.9 µM.

For the compound `CC1(C)OC[C@@H]([C@@]2(COC(c3ccccc3)(c3ccccc3)c3ccccc3)CC=CC(=O)O2)O1`, the TGI in test [1] was 74.4 µM; in test [2], 96.7 µM; in [3], 83.8 µM; in [4], above 100 µM; in [5] it was above 100 µM; in test [6], above 100 µM. The TGI in test [10] is 98.2 µM; in test [7] it was above 100 µM; in test [8] it was above 100 µM.

As for `CC(Oc1ccc(Cl)cc1Cl)C(=O)NN1C(=O)CC(=O)N(c2ccccc2)C1=S` (centres undefined), the TGI in test [1], in [3], in test [4], in test [5], in test [6] and in test [10] was above 100 µM each time. Further, the TGI in test [7], in [8] and in test [9] was above 100 µM throughout.

For `N#C/C(=C(/O)CCl)c1nc2ccccc2o1`, the TGI in test [1] is 5.01 µM; in test [2] it was 90.7 µM; in [4], 4.46 µM; in test [5], 41.9 µM; in test [6], above 100 µM; in [10], 10.3 µM. The TGI was 14.3 µM in [7], 3.5 µM in [8] and 3.83 µM in test [9].

In the case of `CN(C)c1ccc(-c2ccc(-c3ccc(C(=N)N)cn3)o2)cc1`, the GI50 is 1800 nM in [1]; 1800 nM in test [2]; 1360 nM in test [4]; 1.74 µM in test [5]; 1900 nM in [6]; 1.35 µM in [7]. For the same compound, the values for the GI50 in test [8] and in test [9] were 1.76 µM and 1580 nM, respectively. In addition, the TGI in test [1] was 3.5 µM; in [2] it was 4.36 µM; in test [4], 2.98 µM; in test [5] it was 3.32 µM; in test [6], 4.07 µM; in test [7], 3.05 µM. The figures for the TGI in test [8] and in [9] were 3.36 µM and 3 µM, respectively.

As to `C/C(C=O)=C/[C@@]1(C)O[C@@H](C)[C@@](C)(O)[C@@H]1O`, the TGI in test [2] is above 100 µM; in test [3] it was above 100 µM; in test [4] it was 51.5 µM; in test [5], above 100 µM; in test [6], above 100 µM; in test [10] it was 25.7 µM. The TGI is 64 µM in [7], above 100 µM in [8] and above 100 µM in [9].

Turning to `C=C1C(O)C2(O)OCC34C(CC5C(C)=CC(=O)C(O)C5(C)C23)OC(=O)C(OC(=O)C/C=C/CCCCCCCC)C14` (centres undefined), the TGI in test [2] stood at 0.166 µM; in test [3], 0.027 µM; in test [4], 0.0979 µM; in test [5], 0.041 µM; in test [10], 0.533 µM; in test [8] it was 0.0311 µM.

`O=c1c2cc(O)ccc2n2nnc3ccc(NCCNCCO)c1c32`: the GI50 in test [2] is 1730 nM and 501 nM; in [5] it was 10.1 µM and 3.25 µM; in [10] it was 1830 nM and 205 nM; in test [7], 28.9 µM and 4.01 µM; in [8] it was 9.78 µM and 4.3 µM; in test [9], 12900 nM and 2390 nM. In addition, the TGI in test [2] was > 36.6 µM and 10.6 µM; in test [3] it was 97 µM and 48.1 µM; in test [4] it was above 100 µM; in test [5] it was 43.4 µM and 18 µM; in test [7], > 57.4 µM and 23.6 µM; in test [8] it was 22.7 µM and 16.2 µM. Moreover, in test [9], the TGI is 28.9 µM and 11.7 µM.

For `Cc1cc(-c2nc3c(F)cccc3s2)ccc1N`, the TGI in [1] was above 100 µM; in [2], above 100 µM; in test [3], 31.5 µM; in test [4] it was above 100 µM; in test [5] it was above 100 µM; in [6], above 100 µM. Also, the TGI in [10] was 63.9 µM; in [8], above 100 µM; in test [9], above 100 µM.

Take `CCCCOc1ccc(CC(NC(=O)OC(C)(C)C)C(=O)NC(C)C(=O)NC(Cc2ccccc2)C(=O)NCC(N)=O)cc1` (centres undefined) (Boc-Y(nBu)AFG-NH2; configuration not given here): the TGI in test [1] was above 100 µM; in test [2], above 100 µM; in test [4], above 100 µM; in test [5] it was above 100 µM; in [6], above 100 µM; in test [10], 53.3 µM. Also, the TGI in [7], in [8] and in [9] was above 100 µM in each case.

On to `CCCCCCCCCCCCCCCc1nc(=S)[nH][nH]1`, for which the TGI in test [2], in test [3], in test [4], in [5], in test [10] and in [7] was above 100 µM throughout. The compound also showed a TGI in test [8] above 100 µM.
